Measurements as given in PubChem BioAssay (NCI).
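Step 1: Grow cells in 96-well plates. Step 2: Expose to compound for 48 hours at 5 concentrations. Step 3: Interpolate endpoints linearly; if unreached, use highest concentration. GI50 is the concentration that inhibits growth by half. TGI: concentration producing complete growth inhibition.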

Experiments:
Assay in all cases: inhibition of tumour cell growth, NCI panel, 48 h
OVCAR-5 ovarian = tested on: OVCAR-5 ovarian
RPMI-8226 leukemia = tested on: RPMI-8226 leukemia
SF-539 CNS = tested on: SF-539 CNS
CAKI-1 renal = tested on: CAKI-1 renal
ACHN renal = tested on: ACHN renal
MOLT-4 leukemia = tested on: MOLT-4 leukemia
T-47D breast = tested on: T-47D breast
UACC-257 melanoma = tested on: UACC-257 melanoma
DU-145 prostate = tested on: DU-145 prostate
TK-10 renal = tested on: TK-10 renal
MCF7 breast = tested on: MCF7 breast
M14 melanoma = tested on: M14 melanoma
NCI/ADR-RES ovarian = tested on: NCI/ADR-RES ovarian
UACC-62 melanoma = tested on: UACC-62 melanoma
IGROV1 ovarian = tested on: IGROV1 ovarian
SK-MEL-28 melanoma = tested on: SK-MEL-28 melanoma
SNB-19 CNS = tested on: SNB-19 CNS
MALME-3M melanoma = tested on: MALME-3M melanoma
OVCAR-8 ovarian = tested on: OVCAR-8 ovarian
A549 NSCLC = tested on: A549 NSCLC
U251 CNS = tested on: U251 CNS
SNB-75 CNS = tested on: SNB-75 CNS
K-562 leukemia = tested on: K-562 leukemia
SK-MEL-5 melanoma = tested on: SK-MEL-5 melanoma
NCI-H460 lung = tested on: NCI-H460 lung
HCC-2998 colon = tested on: HCC-2998 colon
KM12 colon = tested on: KM12 colon
LOX IMVI melanoma = tested on: LOX IMVI melanoma
SN12C renal = tested on: SN12C renal

## COc1cc(NC(=O)c2cccc(C3CCc4c(cc(OC)c(OC)c4OC)O3)c2)cc(OC)c1OC (stereo not drawn)
OVCAR-5 ovarian
  GI50: 5.01 µM
  TGI: > 100 µM
RPMI-8226 leukemia
  GI50: 1.95 µM
  TGI: 12.7 µM
SF-539 CNS
  GI50: 2.13 µM
  TGI: 5.81 µM
CAKI-1 renal
  GI50: 2.37 µM
  TGI: > 100 µM
ACHN renal
  GI50: 3.77 µM
  TGI: > 100 µM
MOLT-4 leukemia
  GI50: 2.86 µM
  TGI: 27.5 µM
T-47D breast
  GI50: 2.5 µM
  TGI: 9.29 µM
UACC-257 melanoma
  GI50: 3.89 µM
  TGI: > 100 µM
DU-145 prostate
  GI50: 3.83 µM
  TGI: > 100 µM
TK-10 renal
  GI50: 4.32 µM
  TGI: > 100 µM
MCF7 breast
  GI50: 2.29 µM
  TGI: > 100 µM
M14 melanoma
  GI50: 2.53 µM
  TGI: 71 µM
NCI/ADR-RES ovarian
  GI50: 2.1 µM
  TGI: 6.91 µM
UACC-62 melanoma
  GI50: 1.74 µM
  TGI: 8.33 µM
IGROV1 ovarian
  GI50: 4.15 µM
  TGI: > 100 µM
SK-MEL-28 melanoma
  GI50: 4.64 µM
  TGI: > 100 µM
SNB-19 CNS
  GI50: 5.94 µM
  TGI: > 100 µM
MALME-3M melanoma
  GI50: 2.45 µM
  TGI: > 100 µM
OVCAR-8 ovarian
  GI50: 3.2 µM
  TGI: > 100 µM
A549 NSCLC
  GI50: 3.91 µM
  TGI: > 100 µM
U251 CNS
  GI50: 3.6 µM
  TGI: > 100 µM
SNB-75 CNS
  GI50: 2.33 µM
  TGI: 7.99 µM
K-562 leukemia
  GI50: 1.75 µM
  TGI: > 100 µM
SK-MEL-5 melanoma
  GI50: 1.58 µM
  TGI: 4.52 µM
NCI-H460 lung
  GI50: 3.24 µM
  TGI: > 100 µM
HCC-2998 colon
  GI50: 7.64 µM
  TGI: > 100 µM
KM12 colon
  GI50: 3.1 µM
  TGI: > 100 µM
LOX IMVI melanoma
  GI50: 3.62 µM
  TGI: > 100 µM
SN12C renal
  GI50: 3.47 µM
  TGI: > 100 µM
